Read-outs that look alike come from different tables or passages of the source.
Key:
HL-60/TX1000 = test: In vitro anti-cancer activity against multi-drug resistant cancer cells, MTS assay; assay type: cell-based; conditions: Homo sapiens, HL60/TX1000
Method: (§1) The cell lines were maintained in RPMI1640(GIBCO) supplemented with 10% FCS, 100 units/ml penicillin, 100 ug/ml streptomycin, and 2 mM L-glutamine. The cells were split every third day and diluted to a concentration of 2×10^5 cells/ml one day before experiment. All experiments were performed on exponentially growing cell culture. Cell densities were 2.5×10^4 cells/ml in all experiment.
(§2) A stock solution of Compound (1) was prepared by dissolving the compound at a concentration of 1 mM in 100% DMSO. Final concentrations were obtained by diluting the stock solution directly into the tissue culture medium. Cells were incubated with varying concentrations of the compounds for 72 hours and the IC50 was determined by MTS (i.e. […]) assay. IC50 stands for the concentration of compound required to inhibit 50% tumor cell growth.
(§3) In vitro activity was determined in two MDR (Multi Drug Resistant) human cancer cell lines. HL-60/TX1000 was isolated in vitro by subculturing HL-60 in progressively higher concentration of Taxol. HL-60/TX1000 cells over-express mdr-1 mRNA and p-glycoprotein, as determined by western blot and immunofluorescence labeling with antiPGP antibodies. The cell is cross-resistant to Taxol, Vincristine, Adriamycin, Etoposide and Doxorubicin. MES-SA/Dx5 was established in the presence of increasing concentrations of Doxorubicin. […] MES-SA/Dx5 was purchased from ATCC.
(§4) The procedure for culturing the cells and assaying cancer cell growth inhibition were as described in Example 12.
(§5) The protocol described in Examples 12-13 was used to assay inhibition by Compound (2)-(12) on the growth of the multidrug resistant cancer cell line MES-SA/DX5 and HL-60/TX1000.

MES-SA/DX5 = test: as above; assay type: cell-based; conditions: Homo sapiens
Method: as §1, §2, §3, §4, §5

[1] = test system: human breast tumor (MDA435); test: Tumor growth inhibition assay, human breast tumor (MDA435) xenograft model; assay type: in vivo, mouse
Method: (§6) The in vivo anti-cancer efficacy of Compound (2) was assessed in tumor bearing mice using a tumor growth inhibition assay. Human breast tumor (MDA-435) cells were implanted by injection of a tumor cell suspension subcutaneously in the flank of a nude mouse. Treatment of the tumor with an experimental compound began after the tumor had been established (volume was approximately 100 mm^3). The animal then began a multiple injection schedule where the compound was administered orally. Tumors were measured two times a week. During the course of this assay, animals were monitored daily for signs of toxicity including body weight loss.
A supplemented media was prepared from 50% DMEM/Dulbecco Modified Eagle Medium (High Glucose), 50% RPMI 1640, 10% FBS/Fetal Bovine Serum (Hybridoma Tested; Sterile Filtered), 1% L-Glutamine, 1% Penicillin-Streptomycin, 1% MEM Sodium Pyruvate, 1% MEM Non-Essential Amino Acids. […]
The flask was washed with 10 ml of sterile room temperature phosphate buffered saline (PBS). […] The supernatant was aspirated and the cell pellet was resuspended in 10 ml of supplemented media and the cells were counted. […]
The above procedure for trypsinizing and centrifuging the cells were followed. The supernatant was aspirated and the cell pellet was resuspended in 10 ml of sterile PBS and the cells were counted. […]

[2] = Body weight of treated tumor bearing mice (signs of toxicity); assay type: in vivo, mouse
Method: as §6
A dosing solution for compound administration was prepared by dissolving 1 gram of Compound (2) in 10 ml of acetone (HPLC grade), and sonicated for 5 minutes using 550 Sonic Dismembrator. 1.2 equivalents of 1 N HCl aqueous solution were added to the acetone solution which was then sonicated for 5 minutes. All solvent was then evaporated from the solution by using Speed Vac Plus SC 250 DDA over night. The dried powder was used for preparing the dosing solution of Compound (2). 1% Methyl cellulose (MC) vehicle was prepared by dissolving 1.0 gram of Methyl cellulose, 400 cps, U.S.P. (Spectrum Laboratory Products, Cat. # ME136) in 100 mL of H2O. This mixture was then stirred for 12 hours at room temperature to produce a clear 1% MC solution. […]

p388 = test: In vitro anti-cancer activity, MTS assay, 72 hours; assay type: cell-based, murine; conditions: Mus musculus, p388, 72 hours
Method: (§7) The in vitro activity of the compounds was determined in the following seven human cancer cell lines. MDA435 (human breast cancer), MIP10 (human colon cancer), HL-60 (human myeloid leukemia), U937 (human leukemia), p388 (murine leukemia), DU-145 (human prostate cancer), MES-SA (human uterine sarcoma) were obtained from ATCC (American Type of Culture Collection).
as §1, §2

DU-145 = test: In vitro anti-cancer activity, MTS assay, 72 hours; assay type: cell-based; conditions: Homo sapiens, DU-145, 72 hours
Method: as §7, §1, §2

H2 = test: In vitro anti-cancer activity, MTS assay, 72 hours; assay type: cell-based; conditions: Homo sapiens, H2, 72 hours
Method: as §7, §1, §2

HL-60 = test: In vitro anti-cancer activity, MTS assay, 72 hours; assay type: cell-based; conditions: Homo sapiens, HL-60, 72 hours
Method: as §7, §1, §2

MDA-435 = test: In vitro anti-cancer activity, MTS assay, 72 hours; assay type: cell-based; conditions: Homo sapiens, MDA435, MDA-435, 72 hours
Method: as §7, §1, §2

MES-SA = test: In vitro anti-cancer activity, MTS assay, 72 hours; assay type: cell-based; conditions: Homo sapiens
Method: as §7, §1, §2

A549 = test: In vitro anti-cancer activity, MTS assay, 72 hours; assay type: cell-based; conditions: Homo sapiens, A549, 72 hours
seven cancer cell lines = test: In vitro anti-cancer activity, summary over seven cancer cell lines; assay type: cell-based; conditions: range over the seven cell lines of Table 1; read-out: IC50 against seven cancer cell lines
Method: as §7, §1, §2

[3] = test system: MDR cell lines (MES-SA/DX5, HL-60/TX1000); test: In vitro anti-cancer activity, summary over both MDR cell lines; assay type: cell-based, human
Method: as §1, §2
In vitro activity was determined in two MDR (Multi Drug Resistant) human cancer cell lines. HL-60/TX1000 was isolated in vitro by subculturing HL-60 in progressively higher concentration of Taxol. HL-60/TX1000 cells over-express mdr-1 mRNA and p-glycoprotein, as determined by western blot and immunofluorescence labeling with antiPGP antibodies. The cell is cross-resistant to Taxol, Vincristine, Adriamycin, Etoposide and Doxorubicin. […]

[4] = HL-60/TX1000, Table 3, read-out: IC50 (uM) HL-60/TX1000
[5] = MES-SA/DX5, Table 3, read-out: IC50 (uM) MES-SA/DX5
[6] = HL-60/TX1000, Table 2, read-out: IC50
[7] = MES-SA/Dx5, MES-SA/DX-5, Table 2, read-out: IC50

Compound | IC50 (HL-60/TX1000; [4]) [µM] | IC50 (MES-SA/DX5; [5]) [µM] | also measured
COC(=O)c1cnc(C(=O)c2cn(Cc3ccc(Cl)cc3)c3ccccc23)[nH]1 [Compound 8, 2-[1-(4-chloro-benzyl)-1H-indole-3-carbonyl]-3H-imidazole-4-carboxylic acid methyl ester] | 0.05 | 0.1 | 
O=C(c1cccnc1)c1c[nH]c(C(=O)c2cn(Cc3ccc(Cl)cc3)c3ccccc23)n1 [Compound 10, [1-(4-Chlorobenzyl)-1H-indol-3-yl]-[4-(pyridine-3-carbonyl)-1H-imidazol-2-yl]methanone] | 0.5 | 0.5 | 
CCC(=O)c1c[nH]c(C(=O)c2cn(Cc3ccc(Cl)cc3)c3ccccc23)n1 [Compound 11] | 0.5 | 0.5 | 
O=C(c1nc(-c2ccccn2)c[nH]1)c1cn(Cc2ccc(Cl)cc2)c2ccccc12 [Compound 9, [1-(4-Chloro-benzyl)-1H-indol-3-yl]-(4-pyridin-2-yl-1H-imidazol-2-yl)-methanone] | 0.5 | 0.5 | 
Cc1ccc(Cn2cc(C(=O)c3nc4cnccc4[nH]3)c3ccccc32)cc1 [Compound 4] | 0.05 | 0.05 | 
Cc1cccc2c(C(=O)c3nc4ccncc4[nH]3)cn(Cc3ccc(Cl)cc3)c12 [Compound 5] | 0.1 | 0.5 | 
CC1(C)COC(c2cnc(C(=O)c3cn(Cc4ccc(Cl)cc4)c4ccccc34)[nH]2)=N1 [Compound 12, [1-(4-chlorobenzyl)-1H-indol-3-yl]-[5-(4,4-dimethyl-4,5-dihydro-oxazol-2-yl)-1H-imidazo 1-2-yl]-methanone] | 0.5 | 0.5 | 
N#Cc1ccc(Cn2cc(C(=O)c3nc4cnccc4[nH]3)c3ccccc32)cc1 [Compound 2] | 0.05 | 0.05 | tumor growth inhibition ([1]; MDA435 in nude mice, 25 mg/kg orally, 3 times a week for 3 weeks): significantly inhibits tumor growth; reduction of the volume of tumors ([1]; MDA435 tumors in nude mice, administered orally): greater than 50%; change in body weight ([2]; mice treated with Compound (2)): Little or no change in body weight; loss of weight ([2]; nude mice, 25 mg/kg orally, 3 times a week for 3 weeks): less than 5%
O=C(c1nc2cnccc2[nH]1)c1cn(Cc2ccc(Cl)cc2)c2ccccc12 [Compound (1)] |  |  | IC50 (p388): 50 nM; IC50 (DU-145): 50 nM; IC50 (H2): 50 nM; IC50 (HL-60): 50 nM; IC50 (MDA-435): 50 nM; IC50 (MES-SA): 10 nM; IC50 (A549): 50 nM; IC50 (HL-60/TX1000; [6]): 0.05 µM; IC50 (MES-SA/DX5; [7]): 0.05 µM; IC50 (seven cancer cell lines): 10 to 50 nM; anti-cancer activity against MDR cancer cell lines ([3]; MES-SA/DX5 and HL-60/TX1000, in words): high anti-cancer activity
O=C(c1nc2ccncc2[nH]1)c1cc(Cc2ccc(Cl)cc2)n2ccccc12 [Compound 7] | 0.05 | 0.5 | 
CC(=O)O[C@H]1C(=O)[C@@]2(C)[C@H]([C@H](OC(=O)c3ccccc3)[C@]3(O)C[C@H](OC(=O)[C@H](O)[C@@H](NC(=O)c4ccccc4)c4ccccc4)C(C)=C1C3(C)C)[C@]1(OC(C)=O)CO[C@@H]1C[C@@H]2O [Taxol, reference compound] |  |  | IC50 (HL-60/TX1000; [6]): 5 µM; IC50 (MES-SA/DX5; [7]): 5 µM
O=C(c1nc2ccncc2[nH]1)c1cn(Cc2ccc(Cl)cc2)c2cc(F)ccc12 [Compound 6] | 0.05 | 0.05 | 
O=C(c1nc2cnccc2[nH]1)c1cn(Cc2ccc(Cl)c(Cl)c2)c2ccccc12 [Compound 3] | 0.04 | 0.05 | 
CC[C@]1(O)C[C@H]2CN(CCc3c([nH]c4ccccc34)[C@@](C(=O)OC)(c3cc4c(cc3OC)N(C=O)[C@H]3[C@@](O)(C(=O)OC)[C@H](OC(C)=O)[C@]5(CC)C=CCN6CC[C@]43[C@@H]65)C2)C1 [Vincristine, reference compound] |  |  | IC50 (HL-60/TX1000; [6]): 5 µM; IC50 (MES-SA/DX5; [7]): 1 µM; IC50 ([3]; Homo sapiens, MES-SA/DX5 and HL-60/TX1000, text summary of Tables 2 and 3, read-out: IC50 against the MDR cell lines): 1000 to 5000 nM

Reference: patent publication US20040186129A1, “2-Aroylimidazole compounds for treating cancer” (priority 2001, published 2004)
